Entries after “also recorded” stand apart in the source; their conditions may differ.
Tested on: patients affected by endometriosis, IV stage (deep endometriosis, adenomyosis and ovarian endometriosis)
Test: Clinical study on patients affected by endometriosis treated with Luteolin
Assay type: in vivo, human
Procedure: Clinical Study on Patients Affected by Endometriosis Treated with […]
A composition in powder for oral administration containing Luteolin (62.5 mg of extract of shells of peanuts standardized to 80% Luteolin) equal to 50 mg was prepared.
18 patients affected by endometriosis, IV stage, were identified, all of them with deep endometriosis, adenomyosis and ovarian endometriosis (endometriosis ovarian cysts larger than 3 cm), the disease diagnosis was placed with diagnostic protocol including vaginal and rectal explorations for the diagnosis of deep endometriosis, Nuclear magnetic resonance of pelvis with examination of resonance parameters for the diagnosis of adenomyosis, thickness of the neck-body junction area (JZ) of the uterus larger than 12 mm, exclusion criterion for adenomyosis thickness smaller than 8 mm, examination of the myometrium structure, examination of the myometrium thicknesses both of front and rear wall, hematic examinations comprising the marker Ca 125, the dosage of 17B-estradiol and of testosterone.
The first group constituted by 18 patients ingested 2 capsules per day, every twelve hours, for 45 days of the composition containing Luteolin 50 mg.
For the disease evaluation:
The dosage of 17B-estradiol
The dosage of testosterone
The Rectal examination for deep endometriosis
The rectal examination for deep endometriosis
The nuclear magnetic resonance of pelvis with contrast medium (gadolinium) were performed.
INCLUSION CRITERIA for experimentation
Not ingestion of pain-relieving drugs
Absence of anti-inflammatory drugs
Positive Vaginal examination
Positive rectal examination

[1] = 21st day of treatment, basal JZ>12 mm
[2] = study group, 21st day of treatment, basal VAS>=7

SMILES: O=c1cc(-c2ccc(O)c(O)c2)oc2cc(O)cc(O)c12 [Luteolin, 2-(3,4-dihydroxyphenyl)-,5,7dihydroxy-4-chromenone]
- Serum dosage of testosterone average value of the sample (21st day of treatment, basal 0.13 ng/ml): 0.15 ng/mL
- RMN Adenomyosis JZ between 12 and 8 mm [1]: 5%
- RMN Adenomyosis JZ<8 mm [1]: 95%
- adenomyosis JZ (Luteolin 50 mg oral twice a day, 18 patients): < 12 mm
- disease parameters (deep endometriosis, adenomyosis, ovarian endometriosis) (Luteolin 50 mg oral twice a day, 18 patients, IV stage): quick reduction; also recorded: quick decrease
- average maximum diameter of the ovarian cysts (Luteolin 50 mg oral twice a day, 18 patients, from cm 5.34): 2.14 cm
- side effects / voluntary suspensions of the treatment (Luteolin 50 mg oral twice a day, 45 days): No side effects
- antigen marker Ca 125 (in words) (Luteolin 50 mg twice a day, all treated patients): reduced; also recorded: negativization
- RMN ovarian cysts weighted average (maximum diameter) (after 21 days of therapy, basal cm 5.34): 2.14
- regression of the symptoms (after five days from the beginning of administration, constant for 45 days): almost disappeared
- 17 Beta-Estradiol dosage average value of the sample (serum, 21st day of period, 21st day of treatment, basal 199 pg/ml): 196 pg/mL
- Ca 125 dosage: average value (serum, 21st day of treatment, basal 72.6 UI/ml): 32.1 UI/ml
- Headache (study group, 21st day of treatment, Luteolin 50 mg oral twice a day, basal 21%): 11%
- Cystitis (study group, 21st day of treatment, Luteolin 50 mg oral twice a day, basal 23%): 5%
- Chronic pelvic pain VAS<3 [2]: 100
- Dysmenorrhea VAS<3 [2]: 100
- Dyspareunia VAS<=3 [2]: 100
